The text below walks through data of patent EP0335662B1, “Peptides” (BRITISH TECHNOLOGY GROUP LIMITED, priority 1988, dated 1989).

For one data set, the system named is mice. The note with it: administered to mice; Goerne et al 1982; cited from earlier work.
The next data set concerns hot-plate test. The note with it: injected into the brain; Herman et al 1985; cited from earlier work.
In a further data set the test system is gastric lesions. Put plainly: Gastric lesions after treatment. It counts as in vivo, mice. As to conditions: 32 mg/kg.
Data set [1] relates to hyperalgesia evoked by PGE₂. Put plainly: Rat paw pressure test: hyperalgesia evoked by PGE₂. Also on record: species or system rats. The note with it: in vivo. The protocol: (§1) Hyperalgesia was evaluated by the application of a constant pressure of 20 mmHg to the hind paws of rats (Wistar strain, male, weight 135 - 170g) which was discontinued when animals presented a characteristic freezing reaction (reaction time). The intensity of hyperalgesia was quantified as the variation of the reaction time (Δ reaction time, sec) obtained by subtracting the value measured 1,2,3 or 4h after administration of the hyperalgesic agent from the pre-injection control reaction time (zero time). The experimenter was unaware of the group treatments.
(§2) There were 5 animals per treatment group. […]

Data set [2] has as its system hyperalgesia evoked by DbcAMP. The experiment in a line: Rat paw pressure test: hyperalgesia evoked by DbcAMP. Also on record: species or system rats. As to conditions: in vivo. As for the experimental part:
as §1
The effect of the tripeptides KPV and K(D)PV on hyperalgesia evoked in rats by DbcAMP was studied. Treatments were given ip, 1h before DbcAMP was injected into the paw (ipl). There were 5 animals per treatment group. Delta reaction times were measured 3h after DbcAMP. […] The control was DbcAMP (100»g/paw). […]

Data set [3] deals with hot plate (55°C) reaction time. Put plainly: Standard hot plate (55°C) test. As to conditions: in vivo. As for the experimental part: A standard hot plate (55°C) test was carried out. […]
The test system of data set [4] is hyperalgesia evoked by IL-1β. The note with it: cited from earlier work.
In data set [5] the test system is hyperalgesia evoked by IL-1β. The experiment in a line: Modified Randall-Sellito rat paw pressure test: hyperalgesia evoked by IL-1β. Format: in vivo, rats. As to conditions: 100 »g ipl, 30 minutes before 0.05U IL-1β ipl or ip. The protocol: as §1, §2
Data set [6] concerns human blood mononuclear cells (MNC). Put plainly: PGE₂ release by blood mononuclear cells, radioimmunoassay. It counts as cell-based. As to conditions: in words. As for the experimental part:
The effect of K(D)PT and indomethacin on PGE₂ release by human blood mononuclear cells (MNC) was investigated. The MNC were isolated from buffy coat residues by density gradient centrifugation (Ficoll-hypaque, Sigma) and resuspended in RPMI 1640 culture medium (Gibco) + 2% inactivated foetal calf serum (Imperial Laboratories). […] Values are means of quadruplicates ± s.e.m.'s. PGE₂ concentrations were measured by radioimmunoassay (NEN Research Products).

“And” between values parts separate entries of the source, which are not always exact repeats. Equal values may be shown once. Read-outs that look alike come from different tables or passages of the source. Non-standard residues stand in square brackets, D forms with d. Residues, ends and D or L forms follow the SMILES beside them.

Regarding Arg-Pro, the hyperalgesia on administration result in the data set with mice is listed as “evoke hyperalgesia”.

As to Lys-Pro, the “antinociceptive action in a hot-plate test” value in the data set on hot-plate test is reported as “elicited antinociceptive action”. Besides, the hyperalgesia on administration entry in the data set with mice is recorded as “evoke hyperalgesia”.

For the compound `C[C@@H](O)[C@H](NC(=O)[C@H]1CCCN1C(=O)[C@@H](N)CCCCN)C(=O)O` [K(D)PT, Lys-D-Pro-Thr] (H-Lys-[dP]-Thr-OH), the gastric lesions entry in the data set with gastric lesions is given as “No lesions were observed”.

Regarding `CN1CC[C@]23c4c5ccc(O)c4O[C@H]2[C@@H](O)C=C[C@H]3[C@H]1C5` [Morphine, morphine], in [1], the “change of delta reaction time vs control (= 100%)” value is -63.7% and the delta reaction time was determined as 6.1 ± 0.8 s. In addition, in data set [2], the “antagonism of hyperalgesia evoked by DbcAMP” value is listed as “effective antagonist”, the “change of delta reaction time vs control (= 100%)” value was -64.0% and the delta reaction time came to 6.2 ± 0.4 s. For the same compound, in [3], the “reaction time difference, hot plate (55°C)” value was 3.52 s and 5.55 s. Further, in data set [4] (rat, in vivo), the “antagonism of on-going hyperalgesia” value is given as “able to antagonise on-going hyperalgesia”.

Regarding `COc1ccc2c(c1)c(CC(=O)O)c(C)n2C(=O)c1ccc(Cl)cc1` [Indomethacin, indomethacin], in [5], the “effect of pretreatment on hyperalgesic response, contralateral paws (CL)” value is reported as “no effect” and the “effect of pretreatment on hyperalgesic response, treated paws (I)” value was “markedly attenuated”. Besides, the “effect on production of PGE₂ by MNC” value in data set [6] was “abolished PGE₂ production”.

Consider `Cc1c(N(C)CS(=O)(=O)O)c(=O)n(-c2ccccc2)n1C` [dipyrone], for which, in data set [4] (general statement on known analgesics, no data), the “antagonism of on-going hyperalgesia” value is reported as “able to antagonise on-going hyperalgesia”.
